Results: patent US9463175B2, “Antimalarial drug which contains 5-aminolevulinic acid or derivative thereof as active ingredient” (SBI Pharmaceuticals Co., Ltd., priority 2010, dated 2016)

How the values were obtained:
[1] = system: Plasmodium falciparum 3D7; experiment: Infection rate in culture medium with high starting infection rate of 2%, 8 hours culture (Example 7); type: cell-based; conditions: ALA hydrochloride 200 μM + iron (II) chloride 10 μM; starting infection rate 2%; culture for 8 hours; nothing added: 3.1%
Protocol: (§1) An iron (II) chloride aqueous solution was added to 1 ml of Plasmodium falciparum 3D7 culture medium having an infection rate of 0.3% to a final concentration of 0.1, 1, 10, and 100 μM. As a control, a culture medium to which sterilized water had been added was used. Three culture media were prepared for each of the aforementioned concentrations, and a 12-well plate was used. After each culture medium had been cultured for 48 hours, the infection rate was measured by Giemsa staining. In addition, as for an ALA-added medium, an ALA chloride aqueous solution was added to the medium to a final concentration of 200 μM, and an iron (II) chloride aqueous solution was then added thereto to a final concentration of 0.1, 1, 10, and 100 μM. As described above, the culture medium was cultured for 48 hours, and the infection rate was then measured by Giemsa staining.
(§2) A culture medium was prepared in the same manner as in Example 5 with the exception that 2 ml of a culture medium having an infection rate of 2% was used. To the thus prepared culture medium, iron (II) chloride (final concentration: 10 μM) and ALA hydrochloride (final concentration: 200 μM) were added, followed by culture for 8 hours. Thereafter, the infection rate was measured by Giemsa staining.

[2] = system: Plasmodium falciparum 3D7; experiment: Infection rate in 2% culture with white LED irradiation (Example 8); type: cell-based; conditions: ALA hydrochloride 200 μM; starting infection rate 2%; 8 hours culture, white LED 15 minutes, further 8 hours
Protocol: as §2
ALA hydrochloride was added to a final concentration of 200 μM to a culture medium that had been prepared in the same manner as in Example 7. The obtained mixture was cultured for 8 hours, and thereafter, irradiated with white LED for 15 minutes. The resultant was further cultured for 8 hours, and the infection rate was then measured by Giemsa staining.

[3] = system: Plasmodium falciparum 3D7; experiment: Infection rate of Plasmodium falciparum 3D7 in synchronized culture at the ring stage (Example 6); type: cell-based
Protocol: as §1
(§3) The infection (proliferation) rate (%) was calculated using the following formula: [(Infection rate after 48 hours−infection rate at initiation of culture)/(infection rate of control after 48 hours−infection rate at initiation of culture)]×100. It is to be noted that the infection rate at initiation of the culture was set at 0.3%.
According to a common method, there was prepared a Plasmodium falciparum 3D7 culture medium having an infection rate of 0.3%, which was subjected to synchronized culture at the ring stage by treating with 5% sorbitol. The infection rate was measured by the same method as that described in Example 5. The final concentration of ALA hydrochloride was set at 200 μM.

malaria parasites = conditions: cited from earlier work
[4] = system: Plasmodium falciparum 3D7; experiment: Infection (proliferation) rate of Plasmodium falciparum 3D7 in random culture, Giemsa staining (Example 5); type: cell-based; conditions: 48 hours
Protocol: as §1, §3
The ratio of an increase in the infection rate caused by culture was indicated by setting a region to which neither iron nor ALA was added at 100%.

[5] = system: chloroquine-resistant malaria parasites; experiment: Administration to a malaria patient not responding to chloroquine (Example 3); type: in vivo, human; conditions: predetermined amount of chloroquine alone, body temperature kept around 38 degrees
Protocol: A predetermined amount of chloroquine was administered to a patient who developed malaria. […] They suffered from headache, vertigo and nausea, and their body temperature was kept around 38 degrees. While administering chloroquine, a single capsule of the same capsule as used in Example 1 was also administered to the patient once a day. […] After administration of the capsule for 3 days, administration was suspended.

Cl.NCC(=O)CCC(=O)O [ALA hydrochloride]
infection rate [1]: 0.47% | infection rate [2]: 1.8%

NCC(=O)CCC(=O)O [ALA, 5-aminolevulinic acid]
Infection Rate by Synchronized Culture (Ring Stage) ([3]; ALA hydrochloride 200 μM + iron (II) chloride 0.1 μM): 69% | Infection Rate by Synchronized Culture (Ring Stage) ([3]; ALA hydrochloride 200 μM + iron (II) chloride 1 μM): 58% | Infection Rate by Synchronized Culture (Ring Stage) ([3]; ALA hydrochloride 200 μM + iron (II) chloride 10 μM): 51% | Infection Rate by Synchronized Culture (Ring Stage) ([3]; ALA hydrochloride 200 μM + iron (II) chloride 100 μM): 5% | Infection Rate by Synchronized Culture (Ring Stage) ([3]; ALA hydrochloride 200 μM, no iron (II) chloride): 95% | parasiticidal effect of PDT (malaria parasites; ALA 0.2 mM in medium, light irradiation from projector lamp of 410 W for 30 minutes): sufficient parasiticidal effect | ALA concentration in medium needed for PDT therapy to exhibit some effect (malaria parasites; illumination with ordinary indoor light): 2 mM | Infection Rate (%) by Random Culture ([4]; ALA 200 μM + iron (II) chloride 0.1 μM): 88% | Infection Rate (%) by Random Culture ([4]; ALA 200 μM + iron (II) chloride 1 μM): 86% | Infection Rate (%) by Random Culture ([4]; ALA 200 μM + iron (II) chloride 10 μM): 59% | Infection Rate (%) by Random Culture ([4]; ALA 200 μM + iron (II) chloride 100 μM): 57% | Infection Rate (%) by Random Culture ([4]; ALA 200 μM, no iron (II) chloride): 96%

CCN(CC)CCCC(C)Nc1ccnc2cc(Cl)ccc12 (stereo not shown) [chloroquine]
effect on malaria [5]: sufficient effects could not be obtained

[Cl][Fe][Cl] [iron (II) chloride, reference compound]
Infection Rate (%) by Random Culture ([4]; without ALA, iron (II) chloride 0.1 μM, no iron/no ALA = 100%): 98% | Infection Rate (%) by Random Culture ([4]; without ALA, iron (II) chloride 1 μM, no iron/no ALA = 100%): 97% | Infection Rate (%) by Random Culture ([4]; without ALA, iron (II) chloride 10 μM, no iron/no ALA = 100%): 95% | Infection Rate (%) by Random Culture ([4]; without ALA, iron (II) chloride 100 μM, no iron/no ALA = 100%): 82%
